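Exposure lasted 48 hours, with cells grown in 96-well plates and compounds tested at five concentrations. GI50 = concentration required for 50% inhibition of growth. Definition used: TGI = concentration required for complete inhibition of growth.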
Key:
Assay in all cases: NCI-60 cell line screen, 48 h
HT29 colon = system: HT29 colon
KM12 colon = system: KM12 colon
SF-268 CNS = system: SF-268 CNS
SK-MEL-5 melanoma = system: SK-MEL-5 melanoma
TK-10 renal = system: TK-10 renal
HCT-116 colon = system: HCT-116 colon
MOLT-4 leukemia = system: MOLT-4 leukemia
M14 melanoma = system: M14 melanoma
HOP-92 NSCLC = system: HOP-92 NSCLC
OVCAR-5 ovarian = system: OVCAR-5 ovarian
UO-31 renal = system: UO-31 renal
T-47D breast = system: T-47D breast
ACHN renal = system: ACHN renal
RPMI-8226 leukemia = system: RPMI-8226 leukemia
RXF 393 renal = system: RXF 393 renal
MCF7 breast = system: MCF7 breast
NCI-H226 lung = system: NCI-H226 lung
NCI-H460 lung = system: NCI-H460 lung
HCT-15 colon = system: HCT-15 colon
IGROV1 ovarian = system: IGROV1 ovarian
SK-MEL-2 melanoma = system: SK-MEL-2 melanoma
MALME-3M melanoma = system: MALME-3M melanoma
OVCAR-8 ovarian = system: OVCAR-8 ovarian
U251 CNS = system: U251 CNS
SK-MEL-28 melanoma = system: SK-MEL-28 melanoma
COLO 205 colon = system: COLO 205 colon
HS 578T breast = system: HS 578T breast
HCC-2998 colon = system: HCC-2998 colon
K-562 leukemia = system: K-562 leukemia
BT-549 breast = system: BT-549 breast
PC-3 prostate = system: PC-3 prostate
NCI-H23 lung = system: NCI-H23 lung
HOP-62 NSCLC = system: HOP-62 NSCLC
LOX IMVI melanoma = system: LOX IMVI melanoma
UACC-257 melanoma = system: UACC-257 melanoma
A549 NSCLC = system: A549 NSCLC
SNB-19 CNS = system: SNB-19 CNS
SN12C renal = system: SN12C renal
SW-620 colon = system: SW-620 colon
EKVX NSCLC = system: EKVX NSCLC
MDA-MB-435 = system: MDA-MB-435
HL-60(TB) leukemia = system: HL-60(TB) leukemia
SK-OV-3 ovarian = system: SK-OV-3 ovarian
786-0 renal = system: 786-0 renal
OVCAR-4 ovarian = system: OVCAR-4 ovarian
OVCAR-3 ovarian = system: OVCAR-3 ovarian
A498 renal = system: A498 renal
CAKI-1 renal = system: CAKI-1 renal
SF-539 CNS = system: SF-539 CNS
SF-295 CNS = system: SF-295 CNS
UACC-62 melanoma = system: UACC-62 melanoma
CCRF-CEM leukemia = system: CCRF-CEM leukemia
MDA-MB-231 breast = system: MDA-MB-231 breast
DU-145 prostate = system: DU-145 prostate
NCI-H522 lung = system: NCI-H522 lung
NCI/ADR-RES ovarian = system: NCI/ADR-RES ovarian

Question: Which results are given for `COc1cc(/C=C/c2cc(/C=C/c3ccc(O)c(OC)c3)n(-c3c(Cl)cccc3Cl)c(=O)n2)ccc1O`?
Answer: GI50 (HT29 colon): 1.77 µM; TGI (HT29 colon): 3.36 µM; GI50 (KM12 colon): 2.02 µM; TGI (KM12 colon): 5.27 µM; GI50 (SF-268 CNS): 3.12 µM; TGI (SF-268 CNS): 13.7 µM; GI50 (SK-MEL-5 melanoma): 2.18 µM; TGI (SK-MEL-5 melanoma): 4.86 µM; GI50 (TK-10 renal): 2.91 µM; TGI (TK-10 renal): 10.1 µM; GI50 (HCT-116 colon): 1.31 µM; TGI (HCT-116 colon): 5.25 µM; GI50 (MOLT-4 leukemia): 3.38 µM; TGI (MOLT-4 leukemia): 22.6 µM; GI50 (M14 melanoma): 2.38 µM; TGI (M14 melanoma): 6.87 µM; GI50 (HOP-92 NSCLC): 4.22 µM; TGI (HOP-92 NSCLC): 16.4 µM; GI50 (OVCAR-5 ovarian): 2.76 µM; TGI (OVCAR-5 ovarian): 11 µM; GI50 (UO-31 renal): 2.74 µM; TGI (UO-31 renal): 12.3 µM; GI50 (T-47D breast): 3.44 µM; TGI (T-47D breast): 22.7 µM; GI50 (ACHN renal): 2.84 µM; TGI (ACHN renal): 12.7 µM; GI50 (RPMI-8226 leukemia): 2.96 µM; TGI (RPMI-8226 leukemia): 22.7 µM; GI50 (RXF 393 renal): 2.18 µM; TGI (RXF 393 renal): 4.92 µM; GI50 (MCF7 breast): 2 µM; TGI (MCF7 breast): 11 µM; GI50 (NCI-H226 lung): 3.27 µM; TGI (NCI-H226 lung): 9.44 µM; GI50 (NCI-H460 lung): 3.39 µM; TGI (NCI-H460 lung): 11.8 µM; GI50 (HCT-15 colon): 2.44 µM; TGI (HCT-15 colon): 9.66 µM; GI50 (IGROV1 ovarian): 3.01 µM; TGI (IGROV1 ovarian): 12.3 µM; GI50 (SK-MEL-2 melanoma): 3.3 µM; TGI (SK-MEL-2 melanoma): 12.9 µM; GI50 (MALME-3M melanoma): 3.88 µM; TGI (MALME-3M melanoma): 15.7 µM; GI50 (OVCAR-8 ovarian): 3.34 µM; TGI (OVCAR-8 ovarian): 10.5 µM; GI50 (U251 CNS): 2.37 µM; TGI (U251 CNS): 6.36 µM; GI50 (SK-MEL-28 melanoma): 2.74 µM; TGI (SK-MEL-28 melanoma): 10.1 µM; GI50 (COLO 205 colon): 2.84 µM; TGI (COLO 205 colon): 8.95 µM; GI50 (HS 578T breast): 5.48 µM; TGI (HS 578T breast): > 100 µM; GI50 (HCC-2998 colon): 1.83 µM; TGI (HCC-2998 colon): 3.53 µM; GI50 (K-562 leukemia): 3.11 µM; TGI (K-562 leukemia): > 100 µM; GI50 (BT-549 breast): 2.07 µM; TGI (BT-549 breast): 6.67 µM; GI50 (PC-3 prostate): 4.68 µM; TGI (PC-3 prostate): 25.3 µM; GI50 (NCI-H23 lung): 2.38 µM; TGI (NCI-H23 lung): 6.68 µM; GI50 (HOP-62 NSCLC): 3.41 µM; TGI (HOP-62 NSCLC): 12.8 µM; GI50 (LOX IMVI melanoma): 1.68 µM; TGI (LOX IMVI melanoma): 3.57 µM; GI50 (UACC-257 melanoma): 3.32 µM; TGI (UACC-257 melanoma): 11.3 µM; GI50 (A549 NSCLC): 4.03 µM; TGI (A549 NSCLC): 15 µM; GI50 (SNB-19 CNS): 3.54 µM; TGI (SNB-19 CNS): 13.2 µM; GI50 (SN12C renal): 4.82 µM; TGI (SN12C renal): 19.5 µM; GI50 (SW-620 colon): 3.11 µM; TGI (SW-620 colon): 10.5 µM; GI50 (EKVX NSCLC): 3.26 µM; TGI (EKVX NSCLC): 14.8 µM; GI50 (MDA-MB-435): 1.63 µM; TGI (MDA-MB-435): 5.98 µM; GI50 (HL-60(TB) leukemia): 2.64 µM; TGI (HL-60(TB) leukemia): 14.4 µM; GI50 (SK-OV-3 ovarian): 2.78 µM; TGI (SK-OV-3 ovarian): 10.6 µM; GI50 (786-0 renal): 2.74 µM; TGI (786-0 renal): 8.51 µM; GI50 (OVCAR-4 ovarian): 4.61 µM; TGI (OVCAR-4 ovarian): 16.9 µM; GI50 (OVCAR-3 ovarian): 3.19 µM; TGI (OVCAR-3 ovarian): 12.1 µM; GI50 (A498 renal): 3.79 µM; TGI (A498 renal): 13.2 µM; GI50 (CAKI-1 renal): 14.6 µM; TGI (CAKI-1 renal): 30 µM; GI50 (SF-539 CNS): 2.18 µM; TGI (SF-539 CNS): 6.92 µM; GI50 (SF-295 CNS): 2.87 µM; TGI (SF-295 CNS): 9.52 µM; GI50 (UACC-62 melanoma): 2.59 µM; TGI (UACC-62 melanoma): 7.42 µM; GI50 (CCRF-CEM leukemia): 3.21 µM; TGI (CCRF-CEM leukemia): 70.6 µM; GI50 (MDA-MB-231 breast): 3.65 µM; TGI (MDA-MB-231 breast): 15.1 µM; GI50 (DU-145 prostate): 3.48 µM; TGI (DU-145 prostate): 13 µM; GI50 (NCI-H522 lung): 1.55 µM; TGI (NCI-H522 lung): 3.23 µM; GI50 (NCI/ADR-RES ovarian): 3.53 µM; TGI (NCI/ADR-RES ovarian): 22 µM

— PubChem BioAssay (NCI)
